Counter-ions that a name gives are not always drawn.
Legend:
[1] = test system: IL-6 release from RAW264.7 cells; experiment: IL-6 release from LPS stimulated RAW264.7 cells; type: cell-based, mouse
Experimental: Specifically, A and B show the effects of the compound of Example 1 on soluble PGE2 and Il-6 secretion from RAW264.7 cells stimulated by 1 μg/mL of LPS. The cells were treated with the indicated concentrations of the compound of Example 1 for 2 hours, and then LPS was added and incubation continued for 4 hours. […]

p65 (RelA) = p65 (RelA) (Homo sapiens, UniProt Q04206); experiment: TransAM NF-κB Family DNA Binding ELISA, p65; conditions: p65 binding IC50 (uM), binding to NF-κB sites
Experimental: (§2) Treated samples were then transferred to 30 μL Complete Binding Buffer (with DTT) in microplate wells pre-coated with the NF-κB consensus oligonucleotide. […] The plate was incubated for 1 hour at room temperature with gentle shaking and then washed 3 times with 200 μL 1× Wash Buffer. NF-κB p65, p50, p52, RelB, or c-Rel subunits bound to the plate were detected with 100 μL of the primary antibody (diluted 1:1000 in 1× Antibody Buffer) specific for that subunit. The plate was incubated for 1 hour at room temperature and then washed 3 times with 200 μL 1× Wash Buffer. Next, 100 μL of a HRP conjugated goat anti-rabbit antibody (diluted 1:1,000 in 1× Antibody Buffer) was added to each well. The plate was incubated for 1 hour at room temperature and then washed 4 times with 200 μL 1× Wash Buffer. 100 μL of room temperature Developing Solution was added to each well. The reaction was allowed to develop for 2-10 minutes until a medium dark blue color developed (depending on the subunit activity in the lot of extract or lot of recombinant protein used) and then the reaction was stopped with 100 μL Stop Solution yielding a yellow color. Absorbance was recorded using a Becton-Dickinson DTX 880 Multimode Detector at 450 nm with a reference wavelength subtracted at 620 nm.

NF-κB [2] = experiment: 293-cell pNF-κB-luc reporter assay, TNF-α induced; type: cell-based; conditions: HEK293 cells, NF-κB driven luciferase expression, read-out: 293/NFkB-luc EC50
Experimental: (§1) Inhibition of NF-κB in cells by the compound of Example 1. Two reporter cell assays were used to determine the ability of the compound of Example 1 to inhibit NE-KB driven transcription. The first assay was a 293-cell based assay with a stably integrated pNF-κB-luc reporter plasmid containing 3 NF-κB promoter elements. The second assay was a 293-cell based assay with a stably integrated pTRH1-NF-κB-dscGFP reporter containing 4 NF-κB promoter elements. Cells were treated with 0, 0.2, 1, 10, 20 and 40 μM of the compound of Example 1 for 2 hours then were induced with 20 ng/ml TNF-α for 18 hours. Following the induction, luminescence or fluorescence was quantified using a Beckman-Coulter 2300 plate reader. […] These values represent the median value generated from three independent experiments±the standard error. As a control, 0.5% DMSO treated and untreated cells were compared to verify that the Example 1 carrier had no effect on the expression of luciferase or in the readout of the assay. There was a slight decrease in the output from the assay in the DMSO treated population although it was not statistically significant. As a result of the controls, the decrease in activity in the drug treated samples was compared to the DMSO control sample.

NF-κB [3] = experiment: 293-cell pTRH1-NF-κB-dscGFP reporter assay, TNF-α induced; type: cell-based; conditions: NF-κB driven GFP expression, read-out: NF-kB/293/GFP EC50
Experimental: as §1

p52 = target: T1, p52 (Homo sapiens, UniProt Q00653); experiment: TransAM NF-κB Family DNA Binding ELISA, p52; conditions: for IC50: p52 binding IC50 (uM), cells without % sign
T1 sequence (Q00653 1-454 limits assumed): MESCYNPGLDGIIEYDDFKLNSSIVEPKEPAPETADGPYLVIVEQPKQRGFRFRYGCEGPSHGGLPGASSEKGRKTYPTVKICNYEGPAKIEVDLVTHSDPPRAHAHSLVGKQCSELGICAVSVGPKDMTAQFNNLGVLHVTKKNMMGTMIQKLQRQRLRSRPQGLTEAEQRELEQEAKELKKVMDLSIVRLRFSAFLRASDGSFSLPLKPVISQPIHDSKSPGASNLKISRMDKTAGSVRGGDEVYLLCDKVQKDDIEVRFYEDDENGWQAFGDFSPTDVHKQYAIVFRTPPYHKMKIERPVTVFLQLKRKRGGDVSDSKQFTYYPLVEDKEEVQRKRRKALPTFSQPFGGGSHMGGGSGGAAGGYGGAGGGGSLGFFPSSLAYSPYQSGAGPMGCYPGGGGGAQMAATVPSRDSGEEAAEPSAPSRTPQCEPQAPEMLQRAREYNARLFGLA

p50 = target: T2, p50 (Homo sapiens, UniProt P19838); experiment: TransAM NF-κB Family DNA Binding ELISA, p50; conditions: p50 binding IC50 (uM), cells without % sign
T2 sequence (P19838 1-433 limits assumed): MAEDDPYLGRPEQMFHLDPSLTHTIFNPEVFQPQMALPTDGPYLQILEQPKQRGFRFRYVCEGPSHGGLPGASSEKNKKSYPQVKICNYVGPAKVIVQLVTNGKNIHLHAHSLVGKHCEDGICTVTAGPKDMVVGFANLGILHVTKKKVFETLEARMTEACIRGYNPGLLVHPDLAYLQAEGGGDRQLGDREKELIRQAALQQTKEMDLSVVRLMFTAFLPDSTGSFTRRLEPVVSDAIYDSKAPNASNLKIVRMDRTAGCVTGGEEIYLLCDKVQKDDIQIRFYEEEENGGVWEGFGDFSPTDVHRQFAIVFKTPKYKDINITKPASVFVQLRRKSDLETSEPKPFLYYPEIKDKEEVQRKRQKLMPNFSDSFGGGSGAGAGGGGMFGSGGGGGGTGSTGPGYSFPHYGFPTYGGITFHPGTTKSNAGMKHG
Experimental: as §2

RelB = target: T3, RelB (Homo sapiens, UniProt Q01201); experiment: TransAM NF-κB Family DNA Binding ELISA, RelB; conditions: at 5 uM
T3 sequence (Q01201 1-579): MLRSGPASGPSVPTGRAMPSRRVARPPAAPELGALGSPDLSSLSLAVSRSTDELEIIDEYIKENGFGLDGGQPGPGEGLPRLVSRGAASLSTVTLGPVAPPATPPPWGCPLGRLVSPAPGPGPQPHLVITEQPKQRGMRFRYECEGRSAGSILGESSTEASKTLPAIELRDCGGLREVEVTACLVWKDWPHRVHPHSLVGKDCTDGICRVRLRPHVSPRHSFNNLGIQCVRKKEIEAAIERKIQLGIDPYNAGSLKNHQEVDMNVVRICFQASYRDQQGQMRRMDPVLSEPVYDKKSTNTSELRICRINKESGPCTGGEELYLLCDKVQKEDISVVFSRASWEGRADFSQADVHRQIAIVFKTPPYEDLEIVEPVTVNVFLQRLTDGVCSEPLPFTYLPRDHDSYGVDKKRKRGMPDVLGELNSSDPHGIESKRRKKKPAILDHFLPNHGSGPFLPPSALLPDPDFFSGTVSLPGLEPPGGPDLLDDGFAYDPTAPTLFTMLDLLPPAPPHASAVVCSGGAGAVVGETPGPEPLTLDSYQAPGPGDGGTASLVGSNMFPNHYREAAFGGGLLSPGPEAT
T3 sequence (Q00653 1-454 partner limits assumed): T1 sequence (Q00653 1-454 limits assumed)

c-Rel = target: T4, c-Rel (Homo sapiens, UniProt Q04864); experiment: TransAM NF-κB Family DNA Binding ELISA, c-Rel; conditions: at 5 uM
T4 sequence (Q04864 2-619 limits assumed): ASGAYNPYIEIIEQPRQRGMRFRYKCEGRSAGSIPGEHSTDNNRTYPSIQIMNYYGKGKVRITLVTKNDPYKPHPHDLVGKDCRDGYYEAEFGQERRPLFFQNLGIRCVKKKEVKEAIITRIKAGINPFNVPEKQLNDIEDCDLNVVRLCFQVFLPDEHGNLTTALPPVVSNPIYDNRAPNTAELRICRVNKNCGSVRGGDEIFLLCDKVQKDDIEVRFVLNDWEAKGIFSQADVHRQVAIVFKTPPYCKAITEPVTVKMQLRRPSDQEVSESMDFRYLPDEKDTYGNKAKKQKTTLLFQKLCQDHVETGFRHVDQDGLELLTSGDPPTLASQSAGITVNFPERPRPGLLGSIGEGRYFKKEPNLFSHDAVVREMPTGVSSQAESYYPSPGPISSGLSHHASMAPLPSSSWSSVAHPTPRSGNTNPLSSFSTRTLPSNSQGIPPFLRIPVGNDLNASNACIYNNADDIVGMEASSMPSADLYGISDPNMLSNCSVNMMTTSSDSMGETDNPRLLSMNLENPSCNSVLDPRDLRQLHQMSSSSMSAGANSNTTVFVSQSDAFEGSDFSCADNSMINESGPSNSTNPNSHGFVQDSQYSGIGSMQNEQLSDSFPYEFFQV
Experimental: as §2

[4] = RAW 264.7 cells, trifluoroacetate
[5] = Mus musculus, RAW264.7, RAW 264.7 cells
[6] = Homo sapiens, HEK293, HEK293 cells

Sequence of p65 (RelA) (Q04206 whole entry): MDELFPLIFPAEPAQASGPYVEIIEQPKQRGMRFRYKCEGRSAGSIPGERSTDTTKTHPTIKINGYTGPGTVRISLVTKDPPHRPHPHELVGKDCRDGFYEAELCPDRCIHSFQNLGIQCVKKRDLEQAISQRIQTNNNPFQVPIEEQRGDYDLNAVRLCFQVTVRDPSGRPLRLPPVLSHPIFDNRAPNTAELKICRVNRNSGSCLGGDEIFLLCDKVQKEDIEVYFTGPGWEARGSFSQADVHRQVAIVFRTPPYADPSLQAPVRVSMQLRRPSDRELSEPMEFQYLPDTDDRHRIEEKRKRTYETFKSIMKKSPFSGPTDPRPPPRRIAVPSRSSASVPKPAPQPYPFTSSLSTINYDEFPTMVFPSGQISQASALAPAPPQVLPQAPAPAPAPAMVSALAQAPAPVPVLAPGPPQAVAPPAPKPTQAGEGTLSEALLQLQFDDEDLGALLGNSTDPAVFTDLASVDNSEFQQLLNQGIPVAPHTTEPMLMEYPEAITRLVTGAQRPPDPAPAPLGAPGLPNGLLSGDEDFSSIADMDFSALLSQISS

With COc1cccnc1C(=O)NC1=CC(=O)C2OC2C1O (racemic) [Example 22, (±)-3-methoxy-pyridine-2-carboxylic acid (2-hydroxy-5-oxo-7-oxa-bicyclo[4.1.0]hept-3-en-3-yl)-amide trifluoroacetate] the EC50 [1, 4] was over 34 µM, the IC50 (p65 (RelA)) was 13.2 µM and the EC50 (NF-κB [2]; trifluoroacetate) was over 34 µM.

COc1nc2ccccc2cc1C(=O)NC1=CC(=O)C2OC2C1=O (racemic) [Example 35, (±)-N-(2,5-dioxo-7-oxabicyclo[4.1.0]hept-3-en-3-yl)-2-methoxyquinoline-3-carboxamide] gave an EC50 [1, 5] of 0.44 µM, an IC50 (p65 (RelA)) of 50 µM and an EC50 (NF-κB [3]; [6]) of 5.3 µM. The IC50 (p52) was 81 µM, the EC50 (NF-κB [2]) was 3.1 µM and the IC50 (p50) was 148 µM.

For COc1c(C(=O)NC2=CC(=O)C3OC3C2=O)ccc2cccnc12 (racemic) [Example 32, (±)-N-(2,5-diose-7-oxabicyclo[4.1.0]hept-3-en-3-yl)-8-methoxyquinoline-7-carboxamide], the EC50 [1, 5] was 0.24 µM, the IC50 (p65 (RelA)) was 30 µM and the EC50 (NF-κB [3]; [6]) was 3 µM. For the same compound, the IC50 (p52) was over 514 µM, the EC50 (NF-κB [2]) was 3.4 µM and the IC50 (p50) was over 514 µM.

COc1c(C(=O)NC2=CC(=O)C3OC3C2O)ccc2cccnc12 (racemic) [Example 33, (±)-N-(2-hydroxy-5-oxo-7-oxabicyclo[4.1.0]hept-3-en-3-yl)-8-methoxyquinoline-7-carboxamide trifluoroacetate] gave an EC50 [1, 4] of 0.26 µM, an IC50 (p65 (RelA)) of 4.8 µM and an EC50 (NF-κB [3]; HEK293 cells, trifluoroacetate) of 2 µM. It also gave an IC50 (p52) of over 378 µM, an EC50 (NF-κB [2]; trifluoroacetate) of 0.53 µM and an IC50 (p50) of over 378 µM.

In the case of O=C(NC1=CC(=O)C2OC2C1O)c1ccc(C(F)(F)F)nc1O (racemic) [Example 23, (±)-2-hydroxy-N-(2-hydroxy-5-oxo-7-oxa-bicyclo[4.1.0]hept-3-en-3-yl)-6-trifluoromethyl-nicotinamide], the EC50 [1, 5] is reported as 24.8 µM, the IC50 (p65 (RelA)) is reported as 6.4 µM and the EC50 (NF-κB [3]; [6]) is reported as over 40 µM. The EC50 (NF-κB [2]) was over 40 µM.

For O=C(NC1=CC(=O)C2OC2C1=O)c1ccncc1O (racemic) [Example 34, (±)-N-(2,5-dioxo-7-oxabicyclo[4.1.0]hept-3-en-3-yl)-3-hydroxyisonicotinamide], the EC50 [1, 5] was 42 µM, the IC50 (p65 (RelA)) was 12 µM and the EC50 (NF-κB [3]; [6]) was 39 µM. For the same compound, the IC50 (p52) was 96 µM, the EC50 (NF-κB [2]) was over 51 µM and the IC50 (p50) was 90 µM.

In the case of CS(=O)(=O)O.O=C(NC1=CC(=O)C2OC2C1O)c1ncccc1O (racemic) [Example 12, (±)-3-hydroxy-N-(2-hydroxy-5-oxo-7-oxabicyclo[4.1.0]hept-3-en-3-yl)picolinamide, mesylate], the EC50 ([1]; RAW 264.7 cells, mesylate) is reported as 2.5 µM, the “RelB binding % inhibit. at 5 uM” value (RelB) is reported as 6% and the “c-Rel binding % inhibit. at 5 uM” value (c-Rel) is reported as 7%. The “p52 binding % inhibit. at 5 uM” value (p52) was 14% and the EC50 (NF-κB [2]; mesylate) was 22 µM.

Cc1ccc(S(=O)(=O)O)cc1.O=C(NC1=CC(=O)C2OC2C1O)c1ncccc1O (racemic) [Example 14, (±)-3-hydroxy-N-(2-hydroxy-5-oxo-7-oxabicyclo[4.1.0]hept-3-en-3-yl)picolinamide tosylate] was tested, and the EC50 ([1]; RAW 264.7 cells, tosylate) was 3.3 µM, the “RelB binding % inhibit. at 5 uM” value (RelB) was 9% and the “c-Rel binding % inhibit. at 5 uM” value (c-Rel) was 1%. For the same compound, the “p52 binding % inhibit. at 5 uM” value (p52) was 6% and the EC50 (NF-κB [2]; tosylate) was 23 µM.

COc1ncccc1C(=O)NC1=CC(=O)C2OC2C1=O (racemic) [Example 30, (±)-N-(2,5-Dioxo-7-oxa-bicyclo[4.1.0]hept-3-en-3-yl)-2-methoxy-nicotinamide] was tested, and the EC50 [1, 5] was 0.76 µM, the IC50 (p65 (RelA)) was 36 µM and the EC50 (NF-κB [3]; [6]) was 4.3 µM. It also gave an IC50 (p52) of over 608 µM, an EC50 (NF-κB [2]) of 2.7 µM and an IC50 (p50) of over 608 µM.

Cc1ncc(C(=O)NC2=CC(=O)C3OC3C2O)c(O)n1 (racemic) [Example 24, (±)-4-hydroxy-2-methyl-pyrimidine-5-carboxylic acid (2-hydroxy-5-oxo-7-oxa-bicyclo[4.1.0]hept-3-en-3-yl)-amide] was tested, and the EC50 [1, 5] was 27.1 µM, the IC50 (p65 (RelA)) was 2.3 µM and the EC50 (NF-κB [3]; [6]) was over 48 µM. The EC50 (NF-κB [2]) was over 48 µM.

In the case of O=C(NC1=CC(=O)C2OC2C1O)c1nc(Cl)c2ccccc2c1O (racemic) [Example 27, (±)-1-chloro-4-hydroxy-isoquinoline-3-carboxylic acid (2-hydroxy-5-oxo-7-oxa-bicyclo[4.1.0]hept-3-en-3-yl)-amide], the EC50 [1, 5] is reported as 0.71 µM, the IC50 (p65 (RelA)) is reported as 30 µM and the EC50 (NF-κB [3]; [6]) is reported as 6.7 µM. The EC50 (NF-κB [2]) was 9.7 µM.

Compound COc1cc2ccccc2nc1C(=O)NC1=CC(=O)C2OC2C1O (racemic) [Example 31, (±)-N-(2-hydroxy-5-oxo-7-oxabicyclo[4.1.0]hept-3-en-3-yl)-3-methoxyquinoline-2-carboxamide] has an EC50 [1, 5] of 1 µM, an IC50 (p65 (RelA)) of 38 µM and an EC50 (NF-κB [3]; [6]) of 5.6 µM. It also gave an IC50 (p52) of 21 µM, an EC50 (NF-κB [2]) of 3.9 µM and an IC50 (p50) of 28 µM.

Source: US8629164B2, “Inhibitors of NF-κB” (Profectus Biosciences, Inc., priority 2009, dated 2014)
